Data: patent US20220088115A1, “PHARMACEUTICAL COMPOSITION, COMPRISING INHIBITORY PEPTIDE AGAINST FAS SIGNALING, FOR PREVENTION OR TREATMENT OF OBESITY, FATTY LIVER, OR STEATOHEPATITIS” (SIGNET BIOTECH INC., priority 2018, published 2022)

How the values were obtained:
[1] = tested on: obesity model mice; test: Glucose tolerance test (GTT) and insulin tolerance test (ITT), obesity model mice, intravenous FBP-8; format: in vivo, C57BL/6 mice
Description: (§1) All animal experiments performed for the present invention were approved by the Institutional Animal Care and Use Committee of Hanyang University. […] Thereafter, depending on the experimental group, 60 μg/one time of FBP8 were administered by intravenous injection twice a week for a total of 5 weeks (FIG. 13), or FBP7 was administered by subcutaneous injection twice a day.
For a glucose intolerance analysis, a dose of 2 g/kg of glucose was injected by intraperitoneal injection into each experimental group maintained in a fasting state for 12 hours, and blood glucose levels were measured after 30, 60 and 120 minutes by Accu-check (Roche, USA).
Insulin resistance was analyzed by measuring blood glucose levels 30 minutes, 60 minutes and 120 minutes after a dose of 0.75 U/kg of insulin was injected by intraperitoneal injection into each experimental group maintained in a fasting state for 4 hours.

[2] = Delivery of fluorescently labeled peptide to tissues of obesity model mice (HFD); format: in vivo, C57BL/6 mice
Description: as §1
100 μg of an Alexa 647-bound peptide was administered by intravenous injection into obesity model mice, and after 12, 24, and 48 hours, the tissues were isolated, and the fluorescence signals in each tissue were analyzed with an image station fluorescence analyzer (Carestream). After the fluorescence signal analysis, the relative fluorescence intensity of each tissue was compared using an ImageJ program provided by NIH.
In addition, 100 μg of Alexa 488-bound FBP was administered by intravenous injection into obesity model mice to confirm whether cell units of peptides were delivered to liver tissues, and frozen tissue sections were produced by isolating the liver tissues after 12, 24, and 48 hours. Thereafter, the nuclei were stained with Hoechst 33342, and the fluorescence signals were analyzed under a TCS-SP5 confocal microscope.
Based on the Fas-specific binding ability of FBP-8 confirmed by the experiments, it was confirmed whether FBP-8 could be specifically delivered to liver tissues or adipose tissues when systemically delivered by intravenous injection or subcutaneous injection. Fluorescently labeled FBP-8 was injected by intravenous injection or subcutaneous injection into obesity model mice in the high fat diet group, and after 24 and 48 hours, the fluorescence distribution was investigated by isolating each organ.

[3] = tested on: 3T3L1 cell line; test: Free fatty acid (FFA) release into 3T3L1 cell culture solution; format: cell-based, murine; details: 3T3L1 treated with FasL and FBP-8
Description: (§2) The 3T3L1 cell line was cultured in a DMEM culture medium containing 10% FBS, 1% penicillin, 1% streptomycin, and 25 mM glucose. The 3T3L1 cell line was aliquoted into the above DMEM culture solution at a concentration of 2×10^5 cells/ml to induce adipocyte maturation for 3 days, and then replaced with a culture solution containing insulin to induce adipocyte maturation again for 3 days. Thereafter, the 3T3L1 cell line was further cultured in the above DMEM culture solution for 2 days to achieve complete maturation of adipocytes.

[4] = tested on: obesity model mice; test: Daily food intake and body weight change, obesity model mice, intravenous FBP-8; format: in vivo, C57BL/6 mice
Description: as §1
Obesity model mice were produced by feeding normal mice a high fat diet for 8 weeks, and FBP-8 was administered by intravenous injection twice a week for a total of 5 weeks (FIG. 13). After five weeks, the obesity model mice were sacrificed to isolate white adipose tissues and liver tissues and analyze the proportion of dead cells by TUNEL staining.

[5] = tested on: 3T3L1 cell line; test: Expression of inflammation-related genes in 3T3L1 cell line treated with FasL and peptide; format: cell-based, murine; details: differentiated 3T3L1 treated with Fas ligand and FBP-8 in combination
Description: as §2
mRNA was extracted from liver tissues and white adipose tissues using RNAiso (Takara, Japan), and cDNA was synthesized with an iscript cDNA synthesis kit (Bio-Rad Laboratories, USA). Thereafter, a gene expression level was analyzed by the 7500 Fast Real-time PCR system (Applied Biosystems, USA). The expression level of each gene was normalized with the expression level of a GAPDH gene, and then calculated as a relative gene expression level with respect to the control.

[6] = biological target: T1, Fas (Homo sapiens, UniProt P25445); test: Binding of Alexa647-labeled peptides to Fas-expressing Jurkat cell line; details: Jurkat cell line always expressing Fas; Alexa647-labeled peptide
T1 construct: A Jurkat cell line, in which Fas is always expressed; host or cells: Jurkat
T1 sequence (P25445 26-335): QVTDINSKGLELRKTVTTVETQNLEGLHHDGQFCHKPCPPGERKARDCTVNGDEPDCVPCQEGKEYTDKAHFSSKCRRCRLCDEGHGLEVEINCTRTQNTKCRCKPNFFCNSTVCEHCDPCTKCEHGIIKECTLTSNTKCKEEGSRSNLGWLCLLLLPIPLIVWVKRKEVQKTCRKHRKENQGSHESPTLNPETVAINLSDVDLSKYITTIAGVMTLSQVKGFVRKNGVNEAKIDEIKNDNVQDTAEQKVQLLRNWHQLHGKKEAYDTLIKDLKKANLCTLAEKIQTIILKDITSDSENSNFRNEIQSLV
Description: A Jurkat cell line which is a human blood cancer cell line and a 3T3L1 cell line which is a murine adipocyte were purchased from ATCC (USA), and the Jurkat cell line was cultured in an RPMI culture medium containing 10% fetal bovine serum (FBS), 1% penicillin, 1% streptomycin, and 25 mM glucose.
A Jurkat cell line, in which Fas is always expressed, was treated with an FITC-labeled Fas antibody and treated with Alexa647-labeled FBP-8, FBP-A, FBP-7 or control peptide (YCNSTVCY; CtrFBP).

[7] = tested on: 3T3L1 cell line; test: Apoptosis level in 3T3L1 cell line treated with FasL and peptide (annexin V flow cytometry); format: cell-based, murine; details: differentiated 3T3L1 treated with Fas ligand and peptide
Description: as §2
The 3T3L1 cell line was treated with a Fas ligand (FasL) at a concentration of 500 ng/ml to induce apoptosis, and FBP signal blocking peptides (FBP-8. FBP-A and FBP-7) and CtrFBP bound to Alexa647 were treated, respectively. After 4 hours of peptide treatment, cells were washed with DPBS and treated with FITC-bound annexin V (BD Pharmingen) to analyze the apoptosis inhibitory effect by a flow cytometer.

[8] = intravenous, liver tissue sections

YCDEHFCY (Fas binding peptide-8 (FBP-8))
blood glucose changes / glucose metabolism in GTT and ITT [1]: improved glucose metabolism | tissue delivery after intravenous injection ([2]; intravenous, 24 and 48 hours): specifically delivered to the liver tissue and white adipose tissue | time from which peptide was delivered to the liver tissue after intravenous injection [2, 8]: 12 h | time until which peptide remained in the liver tissue after intravenous injection [2, 8]: 48 h | time remaining in the liver tissue after subcutaneous injection ([2]; subcutaneous): ≥ 48 h | tissue delivery after subcutaneous injection ([2]; subcutaneous, compared to CtrFBP, 24 and 48 hours): specifically delivered to the liver tissue | extracellular release of fatty acids (FFA) [3]: significantly inhibited | daily food intake [4]: no significant change | body weight gain ([4]; compared to negative control (CtrFBP)): slower | expressions of inflammation-related genes Fas, TNF-α, MCP-1, F4/80, IL-6 and iNOS [5]: remarkably reduced | binding to Jurkat cells (Alexa647 signal) [6]: bound to Jurkat cells at similar levels | apoptosis level [7]: 14±2.98%
